Consider six compounds from US7932281B2, “Amine-based compound and use thereof” (Kureha Corporation, priority 2004, dated 2011).

Each structure is given as a SMILES string.

A short description of data set [1]: Conversion of Compound No. 91 to Compound No. 84 in rat serum, LCMS (Test Example 5). Format: in vitro ADME. Conditions: for Proportion found by LCMS, Rat, 0 minutes / Proportion found by LCMS, Rat, 30 minutes: Compound No. 91 incubated in rat serum/saline. Here is the method:
(§1) 147 μl of human serum pool (manufactured by Cosmo Bio Co. Ltd.) or pool serum obtained by centrifugation (3,500 rpm for 10 minutes) of whole blood collected from a Crj:CD (SD) IGS male rat (manufactured by Charles River Laboratories Japan, INC.) was dispensed in a tube. 147 μl of a physiological saline solution (manufactured by Hikari Pharmaceutical Co., Ltd.) was dispensed thereto. Subsequently, the whole was preincubated for 3 minutes. The solution was added and mixed with a solution (3 μl) obtained by: diluting a 25 mmol/l DMSO solution containing the Compound No. 91 with a physiological saline solution to adjust to 500 μmol/l. The reaction was allowed to start in a thermomixer. After 30 minutes later, the solution was added with 0.1% formic acid/methanol solution (600 μl) and the whole was mixed. The solution was subjected to centrifugation (15,000 rpm for 5 minutes) and the supernatant was subjected to LCMS (liquid chromatograph mass spectrometry) measurement.

The subject of data set [2] is HIV-1IIIB infected MT-4 cells. Description: Anti-HIV activity, HIV-1IIIB infected MT-4 cells, MTT method (Test Example 1). Format: cell-based. The following applies: Human immunodeficiency virus 1, MT4, 120 h, concentration required for inhibition of cell disorder due to HIV infection by 50%, MOI 0.01, 5 days. Here is the method: Immediately after infection, HIV-1IIIB infected MT-4 cells (3.0×10^4/well, MOI (Multiplicity of infection): 0.01) were added to a 96-well microtiter plate together with the test compounds having different concentrations. The cells were cultured in a carbon dioxide incubator at 37° C. for 5 days, and the number of living cells was measured in accordance with the MTT (tetrazolium) method ([…], et al., J. of Virol. Method, 20, 309-321 […]). The antiviral activity is represented by the concentration required for inhibition of cell disorder due to HIV infection by 50% (EC50: 50% Effective Concentration) (μM), and the results are shown in Table 2.

Data set [3] in a line: Conversion of Compound No. 91 to Compound No. 84 in human serum, LCMS (Test Example 5). Format: in vitro ADME. The following applies: for Proportion found by LCMS, Human, 0 minutes / Proportion found by LCMS, Human, 30 minutes: Compound No. 91 incubated in human serum/saline. Here is the method:
as §1

Another data set has as its target T1, CXCR4 (Homo sapiens, UniProt P61073).
T1 construct: endogenous in cells; host or cells: MT-4 cells
Description: Inhibition of 125I-SDF-1α binding to receptors CXCR4 on MT-4 cells (Test Example 2). The following applies: binding-inhibition % at 0.01 μM, 2 hours under ice-cooling, read-out: Inhibition rate (%). The procedure: MT-4 cells (5×10^6/0.2 ml/well) were cultured on a 24-well microtiter plate. After the cells were incubated for 24 hours at 37° C. in a carbon dioxide gas incubator, a culture medium was replaced with a buffer solution (0.1% BSA-containing RPMI-1640). Together with a ligand ^125I-SDF-1α (specific activity: 2,200 Ci/mmol; available from Daiichi Pure Chemicals Co., Ltd. (Tokyo)), test materials with various concentrations were subjected to a binding reaction for 2 hours under ice-cooling. […] Then, a rate of inhibition of the binding between radioactive ligands and receptors CXCR4 by a test material was calculated (a binding-inhibition % at 0.01 μM).

Another data set has as its system SD mice. As to the kind of experiment: Acute toxicity, single transvenous administration (Test Example 3). Format: in vivo. The following applies: 6-week-old male SD mice, 2.5 mg/kg transvenously once in physiological saline. Here is the method:
The aforementioned compound was examined for acute toxicity. Specifically, 6-week-old SD mice (male) were divided into several groups (2 to 3 mice in each group). Subsequently, each of the compounds of Examples was dissolved in a physiological saline solution, and the solution was transvenously administered to the mice (dose: 2.5 mg/kg) once. Then, the number of dead mice was counted.

T1 sequence (P61073 whole entry): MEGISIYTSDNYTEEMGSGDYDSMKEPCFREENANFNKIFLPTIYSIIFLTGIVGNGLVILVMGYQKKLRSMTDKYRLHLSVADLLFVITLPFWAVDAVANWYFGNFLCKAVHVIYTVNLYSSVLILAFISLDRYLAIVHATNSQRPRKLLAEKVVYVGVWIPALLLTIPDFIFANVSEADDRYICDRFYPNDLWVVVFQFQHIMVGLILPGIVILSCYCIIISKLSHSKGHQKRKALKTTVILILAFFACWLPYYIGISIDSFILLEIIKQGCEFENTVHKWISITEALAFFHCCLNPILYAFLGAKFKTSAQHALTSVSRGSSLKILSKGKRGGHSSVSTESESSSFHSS

With `CCCN(CCC)CCCCN(CC(=O)O)Cc1ccc(CN(Cc2ncc[nH]2)Cc2nccn2C)cc1` [Compound No. 84, [(4-dipropylamino-butyl)-(4-[[(1H-imidazol-2-ylmethyl)-(1-methyl-1H-imidazol-2-ylmethyl)-amino]-methyl]-benzyl)-amino]-acetic acid], the “Proportion found by LCMS, Rat, 0 minutes” value in data set [1] was determined as 24%. In data set [1] (30 minutes), the “Proportion found by LCMS, Rat, 30 minutes” value is given as 100%. Also, in data set [2], the midpoint of the response, the EC50, lay at 3 nM. Moreover, the “Proportion found by LCMS, Human, 0 minutes” value in data set [3] came to 1%. The “Proportion found by LCMS, Human, 30 minutes” value in data set [3] (30 minutes) came to 80%. For the same compound, the inhibition at 0.01 µM on CXCR4 stood at 88.3%. The Dead mice/test mice with SD mice is 0/3.

Take `CCCN(CCC)CCCCN(CC(=O)OCC)Cc1ccc(CN(Cc2ncc[nH]2)Cc2nccn2C)cc1` [Compound No. 91]: the “Proportion found by LCMS, Rat, 0 minutes” value in data set [1] was found to be 76%. Besides, the “Proportion found by LCMS, Rat, 30 minutes” value in data set [1] (30 minutes) is 0%. Moreover, the “conversion of prodrug in serum” value in data set [1] (rat serum, 30 minutes) was “converted to the Compound No. 84”; in data set [3] (human serum, 30 minutes), “converted to the Compound No. 84”. The same compound came in with an EC50 in data set [2] of 3 nM. Moreover, the “Proportion found by LCMS, Human, 0 minutes” value in data set [3] stood at 99%. In addition, in data set [3] (30 minutes), the “Proportion found by LCMS, Human, 30 minutes” value is given as 20%. The inhibition at 0.01 µM on CXCR4 is 87.7%. In the data set on SD mice, the Dead mice/test mice is recorded as 0/3.

With `CCCN(CCC)CCCCN(C)C(=O)Nc1ccc(CN(Cc2ncc[nH]2)Cc2nccn2C)cc1` [Compound No. 26, 1-(4-dipropylamino-butyl)-3-(4-{[(1H-imidazol-2-ylmethyl)-(1-methyl-1H-imidazol-2-ylmethyl)-amino]-methyl}-phenyl)-1-methyl-urea], the half-maximal effective concentration (EC50) in data set [2] is 73 nM. Moreover, the inhibition at 0.01 µM at CXCR4 came to 57.3%. For the same compound, the Dead mice/test mice in the data set on SD mice is given as 0/3.

`CCCN(CCC)CCCC1NC(=O)c2ccc(CN(Cc3ncc[nH]3)Cc3nccn3C)cc2NC1=O` (stereo not shown) [Compound No. 14, 3-(3-dipropylaminopropyl)-8-{[(1H-imidazol-2-ylmethyl)-(1-methyl-1H-imidazol-2-ylmethyl)-amino]-methyl}-3,4-dihydro-1H-benzo[e][1,4]diazepin-2,5-dione] registered an EC50 in data set [2] of 6 nM. In addition, on CXCR4, the inhibition at 0.01 µM is 32.9%. Besides, the Dead mice/test mice with SD mice is on record as 0/3.

In data set [2], `CCCN(CCC)CCCCNC(=S)Nc1ccc(CN(Cc2ncc[nH]2)Cc2nccn2C)cc1` [Compound No. 35, 1-(4-dipropylamino-butyl)-3-(4-{[(1H-imidazol-2-ylmethyl)-(1-methyl-1H-imidazol-2-ylmethyl)-amino]-methyl}-phenyl)-thiourea] registered an EC50 of 7 nM. Moreover, the inhibition at 0.01 µM at CXCR4 was 86.3%. Further, the Dead mice/test mice in the data set with SD mice is reported as 0/3.

With `CCCN(CCC)CCCCc1nc2cc(CN(Cc3ncc[nH]3)Cc3nccn3C)ccc2n1CCC` [Compound No. 5, [4-(5-{[(1H-imidazol-2-ylmethyl)-(1-methyl-1H-imidazol-2-ylmethyl)-amino]-methyl}-1-propyl-1H-benzimidazol-2-yl)-butyl]-dipropyl-amine], the EC50 in data set [2] came to 9 nM. Further, the inhibition at 0.01 µM at CXCR4 turned out to be 67%. Further, the Dead mice/test mice in the data set with SD mice was 0/3.
